{
  "source": "patent US11534412B2",
  "about": "“Application of totarol and pharmaceutical composition containing totarol” (Emergopharm SP. Z O.O. SP.K., priority 2017, dated 2022)",
  "system": "human vaginal epithelial cells of the A-431 cell line",
  "type": "cell-based",
  "experimental": "Test of totarol impact on the human vaginal epithelial cells of the A-431 cell line (ATCC® The study was carried out using the following test: Annexin-V-Fluos (Roche, Mannheim, Germany), during incubation for 2, 8 and 24 hours, under in vitro conditions, according to the instructions of the test's manufacturer. The totarol sample was prepared by dissolution of 3 mg of totarol in 3 ml of 100% DMI.\nThe cultivation time for the A-431 cell line was 20 days. The culture was carried out at a temperature of 37° C. in an atmosphere containing 10% CO2, on a DMEM culture medium (Institute of Immunology and Experimental Therapy PAS [IITD PAN], Wroclaw), with an addition of 10% of foetal bovine serum (FBS, Sigma-Aldrich). The culture fluid were being replaced regularly every 48 hours. After achieving a decantable growth or the so-called “monolayer”, the cells were passaged using (for approx. 10 min) 0.25% trypsin (Sigma-Aldrich). Then, the obtained tissue line was passed to 24-well plates (TPP), adjusting their densities to the value of 5×10^5 per well. The tissue culture of the studied lines was carried out for 3 next days on the surface of sterile microscope slides placed on the bottom of a 24-well plate, until a decantable growth was obtained on the surface of the microscope slides. After obtaining the so-called “monolayer”, the cells were washed with PBS without Ca^2+ and Mg^2+ ions (IITD PAN, Wroclaw), and poured with 700 µl of fresh DMEM medium with 10% FBS, together with 300 μl of properly prepared totarol. • Negative control: 1000 μl of fresh DMEM medium with 10% FBS. • Solvent control: 700 μl of fresh DMEM medium with 10% FBS+300 μl of DMI solvent. • Necrosis positive control: 900 μl of fresh DMEM medium with 10% FBS+100 μl H2O2 (30%). The proper examination using the Annexin-V-Fluos test causes green staining of apoptotic cells. […] This dye has an ability to penetrate the cell's interior freely only through a damaged cellular membrane, staining the interior red. In the case of a lack of damages of the cellular membrane, propidium iodide remains on its surface, forming a characteristic red “halo” around the cell. After a corresponding study time, i.e. 2, 8, and 24 hours, the culture fluid was removed, the content was washed with PBS (pre-heated to a temperature of 37° C.) twice. Then, 100 μl of the fluorescent stains mixture including in the Annexin-V-Fluos (Roche) kit were applied on the surface of each microscope slide (placed in a culture well) and additionally, Hoechst stain was used (cellular DNA staining). The staining procedure was carried out according to the manufacturer's recommendations. The culture together with the stains applied onto it were incubated at room temperature for 20 min. The intensity of light emitted by the cells stained with the individual stains was observed using a fluorescent microscope at the wavelength of 494-520 nm, using 400× magnification. The cells were counted in five visual fields, and the results were averaged. The reliability of the tests carried out is confirmed by hydrogen peroxide used as a positive control, causing a distinct necrosis process already after 2 hours of incubation. Data analyses were carried out on the basis of the average number of cells from five visual fields in the individual times (2, 8, and 24 h). The results are presented in Table 6 and in the form of photographic documentation—FIGS. 1, 2, 3, 4.",
  "note": "Read-outs that look alike come from different tables or passages of the source.",
  "data": [
    {"smiles": "CC(C)c1c(O)ccc2c1CC[C@H]1C(C)(C)CCC[C@]21C", "note": "[Totarol, totarol]", "values": [
      {"measurement": "apoptosis and necrosis in epithelial cells, photographic documentation", "result": "No apoptosis and necrosis"},
      {"measurement": "apoptotic and necrotic impact on human vaginal epithelial A-431 cells", "result": "lack of apoptotic and necrotic impact"},
      {"measurement": "Alive cells", "setting": "human, 2 h, 0.3 mg/mL", "result": 100},
      {"measurement": "Apopt. cells", "setting": "human, 2 h, 0.3 mg/mL", "result": 0},
      {"measurement": "Necrot. cells", "setting": "human, 2 h, 0.3 mg/mL", "result": 0},
      {"measurement": "Alive cells", "setting": "human, 8 h, 0.3 mg/mL", "result": 100},
      {"measurement": "Apopt. cells", "setting": "human, 8 h, 0.3 mg/mL", "result": 0},
      {"measurement": "Necrot. cells", "setting": "human, 8 h, 0.3 mg/mL", "result": 0},
      {"measurement": "Alive cells", "setting": "human, 24 h, 0.3 mg/mL", "result": 100},
      {"measurement": "Apopt. cells", "setting": "human, 24 h, 0.3 mg/mL", "result": 0},
      {"measurement": "Necrot. Cells", "setting": "human, 24 h, 0.3 mg/mL", "result": 0}
    ]}
  ]
}
